According to patent US7829560B2, “1,4-disubstituted naphthalenes as inhibitors of P38 MAP kinase” (Arqule, Inc., priority 2004, dated 2010):
pIC50: −log10 of the molar value. Where “and” joins values, the source holds several entries; their conditions need not be identical. Equal values may be shown once.

Tests used:
p38α = biological target: T1, p38α (Homo sapiens, UniProt Q16539); assay: p38 MAP Kinase assay: inhibition of ATF2 phosphorylation, ELISA; format: biochemical; conditions: for pIC50: ATF2 phosphorylation, read-out: [ENZ] P38 ALPHA, IC50, ELISA; for inhibition at 10 µM: substrate ATF2, read-out: [ENZ] P38 ALPHA, PCT INH, ELISA (10 uM;ATF2) (Percent)
T1 construct: p38 MAP Kinases are recombinant human full-length proteins with an amino-terminal GST fusion; GST (N); purchased Upstate Biotechnology Inc; host or cells: E. coli
T1 sequence (Q16539 whole entry, the tested form may be a part): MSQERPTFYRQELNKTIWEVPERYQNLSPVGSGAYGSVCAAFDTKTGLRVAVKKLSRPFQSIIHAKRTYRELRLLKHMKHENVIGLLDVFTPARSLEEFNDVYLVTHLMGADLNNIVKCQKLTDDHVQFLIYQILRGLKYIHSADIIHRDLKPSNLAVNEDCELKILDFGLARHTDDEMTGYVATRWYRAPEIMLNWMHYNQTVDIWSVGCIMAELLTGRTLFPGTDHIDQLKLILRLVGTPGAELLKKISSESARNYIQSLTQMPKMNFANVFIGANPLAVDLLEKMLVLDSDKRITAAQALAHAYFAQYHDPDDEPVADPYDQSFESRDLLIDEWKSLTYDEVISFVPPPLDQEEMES
From the text: Compounds of the invention are screened for the ability to inhibit ATF2 phosphorylation by p38 MAP Kinase in vitro. The ability of compounds to inhibit ATF2 phosphorylation in this in vitro assay is correlated with the inhibition of p38 MAP Kinase and TNFα expression in vivo, and is therefore an indicator of potential in vivo therapeutic activity (Raingeaud, J., et al, J. Biol. Chem., 270: 7420-7426, 1995, Brinkman, M. N., et al, J. Biol. Chem. 274: 30882-30886, 1999 and Fuchs, S. Y. et al, J. Biol. Chem. 275: 12560-12564, 2000).
Materials: All kinases and the substrate ATF2 are acquired from Upstate Biotechnology Inc. p38 MAP Kinases are recombinant human full-length proteins with an amino-terminal GST fusion, expressed in and purified from E. coli. ATF2 is a GST fusion protein containing amino acids 19-96 of human ATF2 expressed in E. coli. All proteins are aliquoted and stored at −80° C.
Methods: p38 MAP Kinase assays are performed using an assay buffer containing 25 mM HEPES, pH 7.5, 10 mM MgCl2, 2 mM DTT, 20 mM β-glycerophosphate, 0.1 mM Na3VO4, 40 μM ATP and 1.25 μM of ATF2 and in the absence or presence of 1% human serum albumin, Method I and II, respectively, with 0.4-6 ng of protein depending on the kinase used. Compounds are serially diluted in DMSO and 2 μL of test compound at 25× final concentration is used. The vehicle control receives DMSO only. Test compounds are pre-incubated with 20 μl of enzyme in kinase buffer (25 mM HEPES, pH 7.5, 10 mM MgCl2, 2 mM DTT, 20 mM β-glycerophosphate, 0.1 mM Na3VO4 in the absence or presence of 1% human serum albumin, Method I and II, respectively) at room temperature for 15 minutes. […] The reactions are incubated for 30 minutes at 37° C. and terminated by the addition of 18 μl of 200 mM EDTA. An ELISA method (I or II) is used to measure the phosphorylation of ATF2 at Thr 69. Method I: 96-well high binding plates (Corning 3369) are coated with 50 μl of kinase reaction for 1 hour at 37° C. The coated plates are washed with 200 μl washing buffer (25 mM Tris HCl, pH 8.3, 192 mM glycine, 0.1% SDS and 0.05% Tween-20) three times. The plates are then washed three times with SuperBlock in TBS (Pierce, 37535). After blocking, plates are incubated with 50 μl of rabbit anti-phospho-ATF2 antibody (Cell Signaling, 9221L, 1:500) for 30 minutes at 37° C. Plates are washed three times with washing buffer prior to incubation with 50 μl HRP-conjugated goat anti-rabbit antibody (Cell Signaling, 7074, 1:500) for 30 minutes at 37° C. Plates are then washed three times with washing buffer before incubation with 50 μl of Ultra TMB-ELISA (Pierce, 34028) for 8 minutes at room temperature. Finally, 50 ul of phosphoric acid (1 M) is added to stop reactions and plate absorbance is read at 450 nm on a SpectraMax 250 plate reader. Method II: 96-well high binding plates (Corning 3369) are coated with 400 ng of monoclonal antibody against GST-tag (Cell signaling) in 100 μl containing sodium borate (pH 8.3) for 90 minutes at 37° C. The plates are washed with 200 μl washing buffer (25 mM Tris HCl, pH 7.2, 150 mM NaCl and Tween-20) three times and blocked with 200 μl of 5% nonfat milk for 30 minutes at room temperature. The plates are washed three times with washing buffer, 50 μl of stopped kinase reaction are added to each well and incubated for 80 minutes at 37° C. The plates are washed three times with 200 μl washing buffer, and the plates are incubated with 50 μl of rabbit anti-phospho-ATF2 antibody (Cell Signaling, 9221L, 1:500) for 30 minutes at 37° C. Plates are washed three times with washing buffer prior to incubation with 50 μl HRP-conjugated goat anti-rabbit antibody (Cell Signaling, 7074, 1:500) for 30 minutes at 37° C. Plates are washed three times with washing buffer before incubation with 50 μl of Ultra TMB-ELISA (Pierce, 34028) for 25 minutes at room temperature. Finally, 50 μl of phosphoric acid (1 M) is added to stop reactions and plate absorbance is read at 450 nm on a SpectraMax 250 plate reader. […]

[1] = test system: TNFα release from THP-1 cells; assay: Inhibition of TNFα release from LPS-stimulated THP-1 cells, ELISA; format: cell-based; conditions: Homo sapiens, THP-1, THP-1 cells, read-out: [CELL] THP-1, IC50, TNF ALPHA, ELISA
From the text: Compounds of the invention are screened for the ability to inhibit TNFα and IL-1β release from THP-1 cells stimulated with lipopolysaccharide (LPS) in vitro. The ability of compounds to inhibit TNFα and IL-1β release in this in vitro assay is correlated with the inhibition of p38 activity and TNFα and IL-1β expression in vivo, and is therefore an indicator of potential in vivo therapeutic activity (Lee J. C. et al, Ann. N.Y. Acad. Sci. 696: 149-170, 1993 and Nature, 372: 739-746, 1994).
Materials: THP-1 cells from ATCC (TIB202) are maintained at 37° C., 5% CO2 in RPMI 1640 media (available from MediaTech, Herndon, Va.) containing 4.5 g/L glucose, supplemented with 10% fetal bovine serum, 1% penicillin/streptomycin and 50 μM β-mercaptoethanol.
Methods: Test compounds are initially dissolved in RPMI media with 1% DMSO (v/v). Compounds are then serially diluted in RPMI media for all subsequent dilutions. The assay is performed under sterile conditions. THP-1 cells at a culture density of 6-8×10^5 cells/ml are collected and resuspended in the RPMI media at 10^6 cells/ml containing 10% fetal bovine serum, no serum or 1% human serum albumin (HSA). 100 μl of resuspended cells are added to each well, which contain 100 μl of a test compound. Test compounds are prepared at twice the final concentration. Final DMSO concentration is no more than 0.5% (v/v). Cells are preincubated with compound for 30 minutes at 37° C., 5% CO2 prior to stimulation with lipopolysaccharide (LPS) (Sigma L-2880, 4 mg/ml stock in PBS). The final LPS concentration in each well is 10 or 30 μg/ml for TNFα and IL-1β release, respectively. Unstimulated control cell suspensions receive PBS vehicle only. Cell mixtures are incubated for 18 or 48 hours for TNFα and IL-1β prelease, respectively. 150 μl of supernatants are taken and transferred to a fresh plate and stored at −20° C. until further analysis. TNFα and IL-1β levels are measured using ELISA kits from Biosource (Catalog no. KHC3012 for TNFα; KAC1192 for IL-1β). A SpectraMAX 250 is used as the plate reader. Analysis is performed by non-linear regression to generate a dose response curve. The calculated IC50 value is the concentration of the test compound that causes a 50% decrease in TNFα or IL-1β levels.

SMILES | pIC50 (p38α) | pIC50 [1] | inhibition at 10 µM (p38α) [%]
O=C(Nc1ccc(OCCN2CCCCC2)c2ccccc12)c1ccc(CN2CCOCC2)cc1 [Compound B2] | < 5.00 | < 5.00 | –
CCOC(=O)N1CCN(CCOc2ccc(NC(=O)c3ccc(CN4CCOCC4)cc3)c3ccccc23)CC1 [Compound B3] | < 5.00 | < 5.00 | –
O=C(Nc1ccc(OCCN2CCSCC2)c2ccccc12)c1ccc(CN2CCOCC2)cc1 [Compound B4] | < 4.00 | < 5.00 | –
C[C@@H]1CN(CCOc2ccc(NC(=O)c3ccc(CN4CCOCC4)cc3)c3ccccc23)C[C@H](C)O1 [Compound B5] | < 5.00 | < 5.00 | –
C[C@@H]1CN(CCOc2ccc(NC(=O)c3cccc(N4CCOCC4)c3)c3ccccc23)C[C@H](C)O1 [Compound B19] | 5.05 | < 5.00 | 65
O=C(Nc1ccc(OCCN2CCSCC2)c2ccccc12)c1cccc(N2CCOCC2)c1 [Compound B20] | 5.26 | < 5.00 | 73.5
O=C(Nc1ccc(OCCN2CCOCC2)c2ccccc12)c1ccccc1 [Compound B26] | 4.66 | < 5.00 | –
O=C(Nc1ccc(OCCN2CCOCC2)c2ccccc12)c1cc(Br)cc(I)c1 [Compound B27] | < 4.00 | < 5.00 | –
O=C(Nc1ccc(OCCN2CCOCC2)c2ccccc12)c1cnc(N2CCOCC2)c2ccccc12 [Compound B28] | < 4.00 | < 5.00 | –
O=C(Nc1ccc(OCCN2CCOCC2)c2ccccc12)c1ccc(N2CCOCC2)cc1 [Compound B29] | < 5.00 | < 5.00 | –
O=C(Nc1ccc(OCCN2CCOCC2)c2ccccc12)c1ccc(N2CCOCC2)nc1 [Compound B30] | < 5.00 | < 5.00 | –
C[C@@H]1CN(c2cccc(C(=O)Nc3ccc(OCCN4CCOCC4)c4ccccc34)c2)C[C@H](C)O1 [Compound B31] | 5.00 | < 5.00 | –
CC(=O)Nc1cccc(C(=O)Nc2ccc(OCCN3CCOCC3)c3ccccc23)c1 [Compound B32] | 5.13 | < 5.00 | –
Cc1cccc(C)c1N1CCN(c2cccc(C(=O)Nc3ccc(OCCN4CCOCC4)c4ccccc34)n2)CC1 [Compound B146] | – | – | 7.5
CC(C)(C)CCNc1cccc(C(=O)Nc2ccc(OCCN3CCOCC3)c3ccccc23)n1 [Compound B147] | – | – | 12
CCN(C)c1cccc(C(=O)Nc2ccc(OCCN3CCOCC3)c3ccccc23)n1 [Compound B148] | – | – | 15.5

The next lines start with the values.

pIC50 (p38α) | pIC50 [1] | inhibition at 10 µM (p38α) [%] | SMILES
– | – | 8.5 | CCC(C)N(C)c1cccc(C(=O)Nc2ccc(OCCN3CCOCC3)c3ccccc23)n1 (stereo not drawn) [Compound B149]
< 4.00 | – | 15 | Cc1cc(C(=O)Nc2ccc(OCCN3CCOCC3)c3ccccc23)cc(N2CCc3ccccc3C2)n1 [Compound B150]
– | – | 0 | Cc1cc(C(=O)Nc2ccc(OCCN3CCOCC3)c3ccccc23)cc(N2CCSC2)n1 [Compound B151]
– | – | 0 | Cc1cc(C(=O)Nc2ccc(OCCN3CCOCC3)c3ccccc23)cc(N2CCC(N3CCCC3)CC2)n1 [Compound B152]
< 4.00 | – | 19 | Cc1cc(C(=O)Nc2ccc(OCCN3CCOCC3)c3ccccc23)cc(N2CCCC2c2ccccc2Cl)n1 (stereo not drawn) [Compound B156]
– | – | 8 | CCN(C)c1cc(C(=O)Nc2ccc(OCCN3CCOCC3)c3ccccc23)cc(C)n1 [Compound B157]
6.36 and 6.51 | – | 83.5 | O=C1CN(CCOc2ccc(NC(=O)c3cc(F)cc(N4CCCCC4)c3)c3ccccc23)CCN1 [Compound B164, 3-Fluoro-N-{4-[2-(3-oxo-piperazin-1-yl)-ethoxy]-naphthalen-1-yl}-5-piperidin-1-yl-benzamide]
– | – | 36 | O=C(Nc1ccc(OCCN2CCOCC2)c2ccccc12)c1cccc(N2CCc3ccccc3C2)c1 [Compound B168]
– | – | 46 | O=C(Nc1ccc(OCCN2CCOCC2)c2ccccc12)c1cccc(NCc2ccc(F)cc2)c1 [Compound B170]
– | – | 16 | O=C(Nc1ccc(OCCN2CCOCC2)c2ccccc12)c1cccc(N2CCC(N3CCCC3)CC2)c1 [Compound B171]
– | – | 25 | Cc1cccc(N2CCN(c3cccc(C(=O)Nc4ccc(OCCN5CCOCC5)c5ccccc45)c3)CC2)c1 [Compound B172]
< 5.00 | – | – | O=C(Nc1ccc(OCCN2C(=O)c3ccccc3C2=O)c2ccccc12)c1cc(F)cc(N2CCOCC2)c1 [Compound B187]
< 5.00 | – | – | CC(C)(C)C1CCC(Oc2cc(F)cc(C(=O)Nc3ccc(OCCN4CCOCC4)c4ccccc34)c2)CC1 (stereo not drawn) [Compound B216]
< 5.00 | – | – | O=C(Nc1ccc(OCCN2C(=O)CCC2=O)c2ccccc12)c1cc(F)cc(N2CCOCC2)c1 [Compound B221]
4.89 | – | – | O=C(Nc1ccc(OCc2ccco2)c2ccccc12)c1cc(F)cc(N2CCOCC2)c1 [Compound B223]
– | 5.47 | – | O=C(Nc1ccc(OCCN2CCOCC2)c2ccccc12)c1cccc(-c2cccc(F)c2)c1 [Compound B272]
– | < 6.00 | – | CN(C)C(=O)[C@@H]1CCCN1c1nccc(Oc2ccc(NC(=O)c3cc(F)cc(N4CCCCC4)c3)c3ccccc23)n1 [Compound B408]
